One test deals with Candida albicans. Put plainly: Antifungal activity against Candida albicans ATCC 44859 after 24 to 48 hrs by two-fold dilution method. It counts as functional, organism-based.
The test system of a further test is Pseudomonas aeruginosa. Put plainly: Antibacterial activity against Pseudomonas aeruginosa CCM 1961 after 24 to 48 hrs by broth microdilution method. It counts as functional, organism-based.
The next test relates to Lichtheimia corymbifera. As to the kind of experiment: Antifungal activity against Absidia corymbifera 272 after 24 to 48 hrs by two-fold dilution method. The format is functional, organism-based.
The subject of another test is Pichia kudriavzevii. Put plainly: Antifungal activity against Candida krusei E28 after 24 to 48 hrs by two-fold dilution method. It counts as functional, organism-based.
Test [1] deals with Staphylococcus epidermidis. As to the kind of experiment: Antibacterial activity against Staphylococcus epidermidis H 6966/08 clinical isolate after 24 to 48 hrs by broth microdilution method. The format is functional, organism-based.
For the next test, the system named is Trichosporon asahii. Put plainly: Antifungal activity against Trichosporon asahii 1188 after 24 to 48 hrs by two-fold dilution method. The format is functional, organism-based.
The test system of a further test is Enterococcus sp. Put plainly: Antibacterial activity against Enterococcus sp. J 14365/08 clinical isolate after 24 to 48 hrs by broth microdilution method. It counts as functional, organism-based.
Test [2] has as its system Klebsiella pneumoniae. As to the kind of experiment: Antibacterial activity against ESBL-positive Klebsiella pneumoniae J 14368/08 clinical isolate after 24 to 48 hrs by broth microdilution method. It counts as functional, organism-based.
The subject of test [3] is Trichophyton mentagrophytes. As to the kind of experiment: Antifungal activity against Trichophyton mentagrophytes 445 after 72 to 120 hrs by two-fold dilution method. The format is functional, organism-based.
Test [4] in a line: Antimycobacterial activity against Mycobacterium avium subsp. avium Chester CNCTC My 80/72 in Middlebrook 7H9 broth after 5 days by AlamarBlue assay. It counts as functional. To be noted: Chester CNCTC My 80/72, 120 h.
For test [5], the system named is Staphylococcus aureus. Put plainly: Antibacterial activity against Staphylococcus aureus CCM 4516/08 after 24 to 48 hrs by broth microdilution method. It counts as functional, organism-based.
Test [6] concerns Klebsiella pneumoniae. As to the kind of experiment: Antibacterial activity against Klebsiella pneumoniae D 11750/08 clinical isolate after 24 to 48 hrs by broth microdilution method. The format is functional, organism-based.
In a further test the test system is Nakaseomyces glabratus. As to the kind of experiment: Antifungal activity against Candida glabrata 20/I after 24 to 48 hrs by two-fold dilution method. It counts as functional, organism-based.
The next test has as its system Escherichia coli. As to the kind of experiment: Antibacterial activity against Escherichia coli CCM 4517 after 24 to 48 hrs by broth microdilution method. The format is functional, organism-based.
Test [7] has as its system Mycobacterium tuberculosis. As to the kind of experiment: Antimycobacterial activity against Mycobacterium tuberculosis H37Rv CNCTC My 331/88 in Middlebrook 7H9 broth after 5 days by AlamarBlue assay. It counts as functional. The conditions noted are these: H37Rv CNCTC My 331/88, 120 h.
Another test concerns Mycobacterium kansasii. Put plainly: Antimycobacterial activity against Mycobacterium kansasii CNCTC My 235/80 in Middlebrook 7H9 broth after 5 days by AlamarBlue assay. To be noted: CNCTC My 235/80, 120 h. The format is functional.
The next test deals with Candida tropicalis. Put plainly: Antifungal activity against Candida tropicalis 156 after 24 to 48 hrs by two-fold dilution method. The format is functional, organism-based.
For test [8], the system named is Staphylococcus aureus. As to the kind of experiment: Antibacterial activity against methicillin-resistant Staphylococcus aureus H 5996/08 clinical isolate after 24 to 48 hrs by broth microdilution method. It counts as functional, organism-based.
The subject of another test is Aspergillus fumigatus. Put plainly: Antifungal activity against Aspergillus fumigatus 231 after 24 to 48 hrs by two-fold dilution method. The format is functional, organism-based.

This is an account of results in ChEMBL document CHEMBL3352247, “Synthesis and antimycobacterial evaluation of 5-alkylamino-N-phenylpyrazine-2-carboxamides” (Bioorg Med Chem, 2015).

Activity calls are given as the source filed them. The calls are words filed in the database; no cut-off is given here.

Turning to `COCCCNc1cnc(C(=O)Nc2ccccc2Cl)cn1`, the result (with Candida albicans; in the test on Pseudomonas aeruginosa; with Lichtheimia corymbifera; in the test with Pichia kudriavzevii; in test [1]; in the test with Trichosporon asahii) was inactive. The result (in the test with Enterococcus sp.; with Klebsiella pneumoniae [2]; in [3]; in the test with Staphylococcus aureus [5]; with Klebsiella pneumoniae [6]; with Nakaseomyces glabratus) was inactive. Moreover, the outcome with Escherichia coli, with Candida tropicalis, in the test with Staphylococcus aureus [8] and in the test with Aspergillus fumigatus was inactive. Further, the minimum inhibitory concentration (MIC) (in test [4]; in [7]; against Mycobacterium kansasii) was greater than 100 µg/mL in each case.
On to `O=C(Nc1ccccc1Cl)c1cnc(NCCc2ccccc2)cn1`, for which the result (in the test with Candida albicans; in the test on Pseudomonas aeruginosa; in the test with Lichtheimia corymbifera; in the test with Pichia kudriavzevii; in [1]; in the test on Trichosporon asahii) was inactive. Also, the result (in the test with Enterococcus sp.; in the test on Klebsiella pneumoniae [2]; in [3]; in the test on Staphylococcus aureus [5]; in the test on Klebsiella pneumoniae [6]; in the test on Nakaseomyces glabratus) was inactive. Also, the result in the test with Escherichia coli, in the test with Candida tropicalis, in the test on Staphylococcus aureus [8] and in the test with Aspergillus fumigatus was inactive. In addition, the minimum inhibitory concentration (MIC) (in test [4]; in test [7]; in the test on Mycobacterium kansasii) was greater than 100 µg/mL each time.
On to `COCCCNc1cnc(C(=O)Nc2ccccc2)cn1`, for which the outcome (in the test with Candida albicans; with Pseudomonas aeruginosa; with Lichtheimia corymbifera; with Pichia kudriavzevii; in test [1]; with Trichosporon asahii) was inactive. For the same molecule, the outcome (in the test on Enterococcus sp.; in the test with Klebsiella pneumoniae [2]; in test [3]; in the test on Staphylococcus aureus [5]; with Klebsiella pneumoniae [6]; with Nakaseomyces glabratus) was inactive. Moreover, the result in the test with Escherichia coli, with Candida tropicalis, with Staphylococcus aureus [8] and with Aspergillus fumigatus was inactive. The MIC is greater than 100 µg/mL in [4], 87.3 µM in test [7] and greater than 100 µg/mL against Mycobacterium kansasii.
`O=C(Nc1ccccc1Cl)c1cnc(NCCCO)cn1`: the outcome (in the test with Candida albicans; in the test on Pseudomonas aeruginosa; in the test on Lichtheimia corymbifera; with Pichia kudriavzevii; in test [1]; in the test with Trichosporon asahii) was inactive. Besides, the outcome (in the test on Enterococcus sp.; in the test on Klebsiella pneumoniae [2]; in test [3]; in the test with Staphylococcus aureus [5]; in the test with Klebsiella pneumoniae [6]; in the test on Nakaseomyces glabratus) was inactive. The outcome in the test on Escherichia coli, in the test on Candida tropicalis, with Staphylococcus aureus [8] and in the test with Aspergillus fumigatus was inactive. Also, the MIC (in test [4]; in test [7]; against Mycobacterium kansasii) was greater than 100 µg/mL each time.
As to `O=C(Nc1ccccc1Cl)c1cnc(NCCCCO)cn1`, the result (in the test with Candida albicans; in the test on Pseudomonas aeruginosa; in the test with Lichtheimia corymbifera; in the test on Pichia kudriavzevii; in [1]; in the test with Trichosporon asahii) was inactive. For the same molecule, the outcome (in the test with Enterococcus sp.; in the test on Klebsiella pneumoniae [2]; in [3]; with Staphylococcus aureus [5]; in the test with Klebsiella pneumoniae [6]; in the test with Nakaseomyces glabratus) was inactive. Moreover, the outcome in the test on Escherichia coli, in the test with Candida tropicalis, in the test on Staphylococcus aureus [8] and in the test on Aspergillus fumigatus was inactive. For the same molecule, the MIC (in test [4]; in test [7]; in the test with Mycobacterium kansasii) was greater than 100 µg/mL in each case.
For the molecule `O=C(Nc1ccccc1Cl)c1cnc(NCCO)cn1`, the result (with Candida albicans; with Pseudomonas aeruginosa; in the test with Lichtheimia corymbifera; in the test on Pichia kudriavzevii; in [1]; in the test on Trichosporon asahii) was inactive. Moreover, the result (in the test on Enterococcus sp.; in the test on Klebsiella pneumoniae [2]; in [3]; in the test with Staphylococcus aureus [5]; with Klebsiella pneumoniae [6]; in the test with Nakaseomyces glabratus) was inactive. Further, the result in the test on Escherichia coli, with Candida tropicalis, with Staphylococcus aureus [8] and with Aspergillus fumigatus was inactive. The minimum inhibitory concentration (MIC) (in [4]; in test [7]; in the test on Mycobacterium kansasii) was greater than 100 µg/mL in each case.
As for `O=C(Nc1ccccc1)c1cnc(NCCCCCO)cn1`, the result (in the test with Candida albicans; with Pseudomonas aeruginosa; with Lichtheimia corymbifera; in the test with Pichia kudriavzevii; in test [1]; with Trichosporon asahii) was inactive. The result (in the test on Enterococcus sp.; in the test with Klebsiella pneumoniae [2]; in test [3]; in the test on Staphylococcus aureus [5]; with Klebsiella pneumoniae [6]; with Nakaseomyces glabratus) was inactive. Also, the result with Escherichia coli, in the test on Candida tropicalis, with Staphylococcus aureus [8] and in the test with Aspergillus fumigatus was inactive. Also, the minimum inhibitory concentration (MIC) in test [4] is greater than 100 µg/mL; in test [7] it was 41.6 µM; in the test with Mycobacterium kansasii, greater than 100 µg/mL.
As for `O=C(Nc1ccccc1)c1cnc(NCCCc2ccccc2)cn1`, the outcome (in the test with Candida albicans; with Pseudomonas aeruginosa; in the test with Lichtheimia corymbifera; with Pichia kudriavzevii; in test [1]; with Trichosporon asahii) was inactive. Besides, the result (in the test with Enterococcus sp.; in the test on Klebsiella pneumoniae [2]; in test [3]; in the test on Staphylococcus aureus [5]; in the test with Klebsiella pneumoniae [6]; with Nakaseomyces glabratus) was inactive. Moreover, the result in the test on Escherichia coli, in the test on Candida tropicalis, in the test on Staphylococcus aureus [8] and with Aspergillus fumigatus was inactive. Moreover, the figures for the MIC (in test [4]; in [7]; in the test on Mycobacterium kansasii) were greater than 100 µg/mL, 75.2 µM and greater than 100 µg/mL, respectively.
For `COCCNc1cnc(C(=O)Nc2ccccc2)cn1`, the result (in the test on Candida albicans; in the test on Pseudomonas aeruginosa; with Lichtheimia corymbifera; with Pichia kudriavzevii; in [1]; with Trichosporon asahii) was inactive. Besides, the outcome (with Enterococcus sp.; in the test with Klebsiella pneumoniae [2]; in test [3]; with Staphylococcus aureus [5]; in the test on Klebsiella pneumoniae [6]; in the test with Nakaseomyces glabratus) was inactive. The outcome in the test on Escherichia coli, with Candida tropicalis, in the test on Staphylococcus aureus [8] and in the test on Aspergillus fumigatus was inactive. In addition, the MIC in test [4] is greater than 100 µg/mL; in test [7], 184 µM; with Mycobacterium kansasii, greater than 100 µg/mL.
